The record followed here is US20260000685A1, “PHARMACEUTICAL COMPOSITION FOR PREVENTING OR TREATING DEGENERATIVE BRAIN DISEASES, COMPRISING CANNABINOIDS AS ACTIVE INGREDIENT, AND USES THEREOF” (NEOCANNBIO CO., LTD., priority 2022, published 2026).

In experiment [1] the test system is primary cortical neuron cells. The experiment can be described thus: Intracellular calcium concentration in neuronal cells (fluo-4 AM fluorescence imaging). It counts as cell-based. To be noted: CBDA (6.25 μM), THCA (12.5 μM), THC (12.5 μM) with Aβ1-42 (5 μM), 24 hours; compared to Aβ1-42 alone; FIG. 8 and 9. As for the experimental part: Specifically, primary cortical neuron cells were seeded in 96-wells at 5×10^5 cells per well and cultured for 6 days. […] Next, to measure the concentration of calcium ions in neuronal cells by detecting Ca^2+ using fluorescence imaging, the cells were washed with PBS and treated with 10 μM Ca^2+ indicator fluo-4 AM (Thermo) for […]. The stained sections were washed with PBS, covered with Prolong Gold Antifide Reagent (Invitrogen, Carlsbad, CA, USA) including DAPI nuclear stain, and observed using a microscope (Carl Zeiss, Oberkochen, Germany). Fluo-4 AM fluorescence signal intensity was measured using the Image J analysis program (National Institute of Health, Bethesda, […], USA).

The test system of experiment [2] is Alzheimer's animal model (Aβ1-42 treated mice). Briefly: Morris water maze test in Aβ1-42 Alzheimer's animal model. To be noted: compared to mice treated only with Aβ1-42; for learning ability (finding submerged platform during training session): CBDA 6.25 μM or THCA 12.5 μM, 3 μL/mouse into hippocampus, FIGS. 11 and 12; for time spent in the target quadrant (probe test) / time spent in the platform area (probe test) / number of times crossed the platform area (probe test): probe test on the 5th day; for time spent in the target quadrant (probe test): FIG. 13A; for time spent in the platform area (probe test): FIG. 13B; for number of times crossed the platform area (probe test): FIG. 13C. It counts as in vivo, ICR mice. The protocol: Female ICR mice (8 weeks old) used in the experiment were purchased from Coretech (Pyeongtaek, Korea). Mice were housed in the animal care facility of the Korea Institute of Science and Technology (KIST) (temperature 22±2° C., humidity 40-60%, 12-hour light/dark cycle). Mice were housed in an environment with free access to food and water. All animal experiments were conducted in accordance with the protocol approval of the Animal Ethics Committee of our institution.
Next, to create an animal model, mice were randomly selected and divided into four groups as follows: PBS treated group (PBS+PBS), Aβ1-42 treated group (Aβ1-42 +PBS) (Alzheimer's animal model), CBDA treated group (Δβ1-42+CBDA (6.25 µM, 3 μL/mouse)), and THCA treated group (Δβ1-42+THCA (12.5 μM, 3 μL/mouse)).
After anesthetizing the isolated mice by intraperitoneal (i.p.) injection of avertin (250 mg/kg), the mice were fixed in a stereotaxic apparatus, and CBDA, THCA, Aβ1-42, or PBS (3 μl/15 min/mouse) were gradually delivered to the hippocampus using a Hamilton syringe (coordinates of bregma: mediolateral (ML)=1.30 mm, anteroposterior (AP)=−2.00 mm, dorsoventral=−2.20 mm).
Specifically, a circular tank (diameter 90 cm, height 50 cm, water temperature 22 ±2° C.) was used for the test, and the tank consisted of four quadrants filled with water. An escape platform (diameter 6 cm, height 29 cm) was submerged 1 cm below the water surface in the center of one of the four quadrants. Experimental mice were trained for 4 days to learn and memorize visual cues placed outside the tank indicating the platform location. The swimming paths of the experimental mice were recorded with a camera connected to a video recorder and path tracking software (EthoVision; Noldus Information Technology, Wageningen, The Netherlands). Four tests were conducted daily during the 4-day training period. During each trial, the experimental mice were allowed 60 seconds to find the hidden platform and an additional 30 seconds to remain on the platform. […] The average time it took each experimental mouse to find the platform (average escape latency) was recorded. Probe tests were conducted 4 days later in the same manner without the platform. Each experimental mouse was allowed to move freely for 60 seconds, which was recorded. Videos were analyzed using tracking software (EthoVision; Noldus Information Technology, Wageningen, The Netherlands) to calculate the time spent in the target quadrant area and the number of crossings in the platform area.

Experiment [3] concerns BDNF (brain-derived neurotrophic factor). The experiment can be described thus: Western blot of BDNF in hippocampal tissues of animal model. It counts as in vivo, ICR mice. The following applies: day 19; compared to Aβ1-42 treated group; FIG. 17. As for the experimental part: (§1) To conduct Western blotting, tissues were homogenized in radioimmunoprecipitation assay buffer (Cell Signaling) to acquire tissue lysates. Tissue protein concentrations were determined using the Bio-Rad protein assay (Bio-Rad, Hercules, CA, USA), and Western blot analysis was conducted using 80-120 μg of protein. Next, the Western blotting samples prepared using the proteins were separated using 12% SDS-PAGE and transferred to a polyvinylidene fluoride membrane (PVDF) (Merck Millipore, Burlington, MA, USA; 0.4 μm). The PVDF was blocked with tris-buffered saline including 5% bovine serum albumin and Tween-20, and incubated with primary antibodies overnight at 4° C. After primary antibody incubation, the samples were incubated with HRP-conjugated secondary antibody (Sigma; 1:5000) for 1 hour at room temperature, and immunodetection was conducted using an enhanced chemiluminescence detection kit (GE Healthcare, Chicago, IL, USA).
(§2) Specifically, hippocampal tissues were acquired on day 19 from the animal models created in Example 7 above (PBS treated group, Aβ1-42 treated group, CBDA treated group, and THCA treated group), and Western blot analysis was conducted on the hippocampal tissues to evaluate the expression levels of BDNF, p-CREB, and p-TrKB.

Experiment [4] relates to p-CREB (CAMP Response Element-Binding Protein). Briefly: Western blot of p-CREB in hippocampal tissues of animal model. To be noted: day 19; compared to Aβ1-42 treated group; FIG. 17. The experiment is classed as in vivo, ICR mice. As for the experimental part:
as §1, §2
(In general: A western blot detects proteins with antibodies after separation by electrophoresis.)

Experiment [5] deals with p-TrkB (Tyrosine receptor kinase B). The experiment can be described thus: Western blot of p-TrkB in hippocampal tissues of animal model. It counts as in vivo, ICR mice. To be noted: day 19; compared to Aβ1-42 treated group; FIG. 17. As for the experimental part: as §1, §2

Turning to `CCCCCc1cc2c(c(O)c1C(=O)O)[C@@H]1C=C(C)CC[C@H]1C(C)(C)O2` [THCA, (6aR, 10aR)-1-Hydroxy-6,6,9-trimethyl-3-pentyl-6a,7,8,10a-tetrahydro-6H-benzo[c]chromene-2-carboxylic acid], the “intracellular calcium ion concentration” value in experiment [1] was “significantly reduced”. In experiment [2], the “learning ability (finding submerged platform during training session)” value is “significantly enhanced”, the “time spent in the target quadrant (probe test)” value is on record as “spent more time”, the “time spent in the platform area (probe test)” value was “spent more time” and the “number of times crossed the platform area (probe test)” value is listed as “increased”. For the same molecule, in experiment [3], the “expression level of BDNF in hippocampal tissues” value was “significantly increased”. Besides, the “expression level of p-CREB in hippocampal tissues” value in experiment [4] is listed as “significantly increased”. The “expression level of p-TrKB in hippocampal tissues” value in experiment [5] is given as “significantly increased”.
With `C=C(C)[C@@H]1CCC(C)=C[C@H]1c1c(O)cc(CCCCC)c(C(=O)O)c1O` [CBDA], in experiment [1], the “intracellular calcium ion concentration” value is “significantly reduced”. For the same molecule, in experiment [2], the “learning ability (finding submerged platform during training session)” value was “significantly enhanced”, the “time spent in the target quadrant (probe test)” value is recorded as “spent more time”, the “time spent in the platform area (probe test)” value is listed as “spent more time” and the “number of times crossed the platform area (probe test)” value was “increased”. Moreover, in experiment [3], the “expression level of BDNF in hippocampal tissues” value is “significantly increased”. Moreover, the “expression level of p-CREB in hippocampal tissues” value in experiment [4] is listed as “significantly increased”. Further, the “expression level of p-TrKB in hippocampal tissues” value in experiment [5] is listed as “significantly increased”.
